Data set [1] in a line: Distillation of Technical CNSL treated with amines (Example 1, Table 1). Particulars: for % composition of distillate: 2-me-Cardol / % composition of distillate: Cardanol / % composition of distillate: Cardol / % composition of residue: 2-me-Cardol / % composition of residue: Cardanol / % composition of residue: Cardol: short still head. An excerpt: (§1) Technical CNSL of Brazilian origin and distilled CNSL obtained from it were used in the present work. Material of this origin tends to be richer in cardol. The average molecular weight was taken to be 306 based upon cardanol (average dienoid, m.w. 300) and cardol (m.w. 314, average trienoid). Three amines were used, namely diethylenetriamine (V), N-(2-aminoethyl)ethanolamine (VI) and diethanolamine (VII), which are structurally related. [drawing 3] Different molar proportions of the triamine (DETA) (V) were used with distilled CNSL (1.0 mole), from 0.25, 0.50 to 1.0. In the case of Technical CNSL (having more cardol initially present) the molar proportions of DETA were 1.0, 1.6 and 2.0 per mole of the CNSL. The mixtures in all cases were kept for 7 days and then distilled under high vacuum. After recovery of the amine, one fraction of cardanol which was considerably purified was collected. […] The distillation residue was still quite mobile and from this, cardol and the polymer from the original CNSL could be recovered.
In a typical experiment, technical CNSL (9.18 g) and DETA (3.09 g: 1 mole) were interacted at ambient temperature and the mixture after 7 days distilled through a short Vigreux type Claisen flask.
(§2) In the distillations reported in the following Tables 1 and 2 a Vigreux column was not used but merely a short still head section. All products were examined by gas-liquid chromatography (hereinafter GLC) on a gas chromatographic apparatus equipped with an integrator upon a 3% SE30 type column after trimethylsilylation with bis-(trimethylsilyl)acetamide in a pyridine solution. In the calculation of the results, response fractions have not been used. The peak areas as printed out by integration have been normalized (expressed in % form).
(9.18 g of Technical CNSL was used)

The nature of data set [2]: Distillation of distilled CNSL treated with amines (Example 1, Table 2).
Excerpt: as §1, §2
(9.18 g distilled CNSL was used with different

Data set [3] in a line: Runs with different amines on distilled CNSL, GC of distillate (Example 2). The conditions noted are these: 0.2 mole amine, seven days, 0.5 mm Hg, fraction 180-185° C. As to the method:
A series of runs was performed using different amines. 0.2 mole of the amines indicated in the table was mixed with 300 g of distilled CNSL (cardanol:cardol 90:10, 1.0 mole). When the mixture was stirred a mild exothermic reaction was noted. The mixture was allowed to stand for seven days at room temperature then distilled at 0.5 mm Hg. The major fraction (boiling at 180° to 185° C.) was analyzed by gas chromatography for cardanol and cardol.

A short description of data set [4]: Effect of length of time of DETA treatment (Example 3).
Excerpt: as §1, §2
Technical CNSL was treated with DETA (1 mole proportion) and the mixture distilled as in Example 1 after it had been allowed to stand for 24 hours instead of 7 days. […] Probably an overnight procedure might well suffice.

Data set [5] in a line: Effectiveness of bases in cardol removal / cardol-cardanol separation (Example 7). The conditions noted are these: for effect on separation / suitability, in words: general statement.
For data set [6] the following is noted: determined in aqueous solution; literature values; cited from earlier work.

Structures are written as SMILES. Entries after “also recorded” stand apart in the source; their conditions may differ.

Take `NCCNCCN` [DETA, diethylenetriamine]: the cardol after distillation in data set [1] (1 molar proportion, no Vigreux column, from ca 20%) is recorded as around 6%. Also, the “impurity in distilled cardanol by TLC” value in data set [1] (1 mole DETA, 7 days, short Vigreux type flask) was “no cardanol”. For the same compound, the “cardol after distillation, in words” value in data set [1] (Vigreux type column) is listed as “almost zero”. Besides, the “% composition of distillate: 2-me-Cardol” value is 1.9% in data set [1] (amine 1 M, 7 days); 2.1% in data set [1] (amine 1.6 M, 7 days); 1.1% in data set [1] (amine 2 M, 7 days); 0.7% in data set [2] (amine 0.25 M); 0.4% in data set [2] (amine 0.50 M); 2.0% in data set [2] (amine 1.0 M). Further, the “% composition of distillate: Cardanol” value in data set [1] (amine 1 M, 7 days) is 93.0%; in data set [1] (amine 1.6 M, 7 days) it was 91.1%; in data set [1] (amine 2 M, 7 days) it was 93.1%; in data set [2] (amine 0.25 M), 95.4%; in data set [2] (amine 0.50 M), 97.7%; in data set [2] (amine 1.0 M), 93.8%. Further, the “% composition of distillate: Cardanol” value was 98.9% in data set [3], 91.7% in data set [4] (24 h with DETA (1 M)) and 92.0% in data set [4] (7 days with DETA (1 M)). The “% composition of distillate: Cardol” value was 5.1% in data set [1] (amine 1 M, 7 days); 6.8% in data set [1] (amine 1.6 M, 7 days); 5.8% in data set [1] (amine 2 M, 7 days); 3.9% in data set [2] (amine 0.25 M); 2.0% in data set [2] (amine 0.50 M); 4.2% in data set [2] (amine 1.0 M). Further, the results for the “% composition of distillate: Cardol” value in data set [3], in data set [4] (24 h with DETA (1 M)) and in data set [4] (7 days with DETA (1 M)) were 0.0%, 6.6% and 6.2%, respectively. Moreover, the “% composition of residue: 2-me-Cardol” value in data set [1] (amine 1 M, 7 days) was found to be 3.2%; in data set [1] (amine 1.6 M, 7 days), 4.24%; in data set [1] (amine 2 M, 7 days), 7.6%. In addition, the “% composition of residue: Cardanol” value amounted to 85.6% in data set [1] (amine 1 M, 7 days); 75.1% in data set [1] (amine 1.6 M, 7 days); 63.2% in data set [1] (amine 2 M, 7 days). Moreover, the “% composition of residue: Cardol” value in data set [1] (amine 1 M, 7 days) turned out to be 11.2%; in data set [1] (amine 1.6 M, 7 days), 21.7%; in data set [1] (amine 2 M, 7 days), 29.1%. For the same compound, the “effectiveness of 24 hour treatment” value in data set [4] (24 h, 1 mole proportion) was “quite effective”. Besides, the “% Composition of distillate: 2-Methyl-Cardol” value in data set [4] (24 h with DETA (1 M)) was determined as 1.6%; in data set [4] (7 days with DETA (1 M)) it was 1.8%. Moreover, in data set [5], the “Effectiveness (in cardol removal)” value is recorded as “excellent”. Further, the Kb in data set [6] is on record as 4.5 × 10^-5.
With `OCCNCCO` [Diethanolamine, diethanolamine], in data set [1] (amine 1.5 M, 7 days), the “% composition of distillate: 2-me-Cardol” value was found to be 2.3%, the “% composition of distillate: Cardanol” value was found to be 88.0%, the “% composition of distillate: Cardol” value is given as 9.7% and the “% composition of residue: 2-me-Cardol” value is recorded as 10.4%. In addition, in data set [1] (amine 1.5 M, 7 days), the “% composition of residue: Cardanol” value was 55.7% and the “% composition of residue: Cardol” value was determined as 33.9%. Moreover, in data set [5], the “Effectiveness (in cardol removal)” value is reported as “not effective; also recorded: ineffective” and the “effect on separation / suitability, in words” value is reported as “not effective”.
As for `NCCNCCO` [N-(2-Aminoethyl)ethanolamine, N-(2-aminoethyl)ethanolamine], in data set [1] (amine 1.5 M, 7 days), the “% composition of distillate: 2-me-Cardol” value turned out to be 2.3%, the “% composition of distillate: Cardanol” value is 92.4%, the “% composition of distillate: Cardol” value is on record as 5.3% and the “% composition of residue: 2-me-Cardol” value stood at 4.7%. In data set [1] (amine 1.5 M, 7 days), the “% composition of residue: Cardanol” value turned out to be 75.5% and the “% composition of residue: Cardol” value turned out to be 19.8%. The “Effectiveness (in cardol removal)” value in data set [5] is “excellent”. In addition, the Kb in data set [6] is listed as 6.6 × 10^-5.
As to `C1CCNCC1` [Piperidine, piperidine], in data set [3], the “% composition of distillate: Cardanol” value is recorded as 96.1% and the “% composition of distillate: Cardol” value stood at 2.2%. For the same compound, the “Effectiveness (in cardol removal)” value in data set [5] is reported as “excellent”. Besides, the Kb in data set [6] is listed as 1.7 × 10^-3.
As for `N` [ammonium hydroxide], in data set [5], the “effect on separation / suitability, in words” value is “not suitable”.
`CCCCN` [n-butylamine]: in data set [3], the “% composition of distillate: Cardanol” value is listed as 94.5% and the “% composition of distillate: Cardol” value was determined as 5.5%. Further, in data set [5], the “Effectiveness (in cardol removal)” value is “not effective; also recorded: ineffective” and the “effect on separation / suitability, in words” value is “not suitable”. In addition, the Kb in data set [6] was 3.9 × 10^-4.
With `CCN(CC)CC` [triethylamine], the “Effectiveness (in cardol removal)” value in data set [5] was “excellent”. Also, the Kb in data set [6] is reported as 4.5 × 10^-4.

The values are drawn from US4352944A, “Treatment of cashew nut shell liquid” (Minnesota Mining and Manufacturing Company, priority 1980, dated 1982).
